Several values for one entry are separate records, joined by “and”; a condition that tells them apart may be missing. Equal values may be shown once.
Tested on: MDA-MB-231 complex spheroid viability
Assay: Anticancer human tumor MDA-MB-231/ATCC cell line growth inhibition;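 note: drug exposure lasted 7 days starting on day 3 of spheroid growth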
Conditions: for viability, T/C: stronger effect = lower value; active = viability on the fitted dose curve at most 10% of control; inactive = the rest
In short: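 Complex spheroids of tumor cells with HUVEC and human MSCs, exposed to iadademstat combined with other agents. Each agent tested in half-log steps from near clinical Cmax (else 10 microM top), DMSO ≤0.25%.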

[1] = curve of first compound, second compound 0.1 µM
[2] = curve of first compound, second compound 0.316 µM
[3] = curve of first compound, second compound 1 µM
[4] = curve of first compound, second compound 3.16 µM
[5] = curve of first compound, second compound 10 µM
[6] = second compound 0.1 µM, first compound 0.00316 µM
[7] = second compound 0.1 µM, first compound 0.01 µM
[8] = second compound 0.1 µM, first compound 0.0316 µM
[9] = second compound 0.1 µM, first compound 0.1 µM
[10] = second compound 0.316 µM, first compound 0.00316 µM
[11] = second compound 0.316 µM, first compound 0.01 µM
[12] = second compound 0.316 µM, first compound 0.0316 µM
[13] = second compound 0.316 µM, first compound 0.1 µM
[14] = second compound 1 µM, first compound 0.00316 µM
[15] = second compound 1 µM, first compound 0.01 µM
[16] = second compound 1 µM, first compound 0.0316 µM
[17] = second compound 1 µM, first compound 0.1 µM
[18] = second compound 3.16 µM, first compound 0.00316 µM
[19] = second compound 3.16 µM, first compound 0.01 µM
[20] = second compound 3.16 µM, first compound 0.0316 µM
[21] = second compound 3.16 µM, first compound 0.1 µM
[22] = second compound 10 µM, first compound 0.00316 µM
[23] = second compound 10 µM, first compound 0.01 µM
[24] = second compound 10 µM, first compound 0.0316 µM
[25] = second compound 10 µM, first compound 0.1 µM
[26] = second compound 0.1 µM, first compound 0.316 µM
[27] = second compound 0.1 µM, first compound 1 µM
[28] = second compound 0.316 µM, first compound 0.316 µM
[29] = second compound 0.316 µM, first compound 1 µM
[30] = second compound 1 µM, first compound 0.316 µM
[31] = second compound 1 µM, first compound 1 µM
[32] = second compound 3.16 µM, first compound 0.316 µM
[33] = second compound 3.16 µM, first compound 1 µM
[34] = second compound 10 µM, first compound 0.316 µM
[35] = second compound 10 µM, first compound 1 µM

COc1cc(C2c3cc4c(cc3C(OC3OC5COC(C)OC5C(O)C3O)C3COC(=O)C23)OCO4)cc(OC)c1O (stereo not drawn) + NC1CC1c1ccc(-c2cccc(O)c2)cc1
15.4 nM: IC50 [3]
< 9.49 nM: IC50 [4] | IC50 [5]
inactive: viability, T/C (second compound 0.1 µM, first compound 0.00949 µM) 67.5% | viability, T/C (second compound 0.1 µM, first compound 0.03 µM) 43.7% | viability, T/C (second compound 0.1 µM, first compound 0.0949 µM) 28.4% | viability, T/C (second compound 0.1 µM, first compound 0.3 µM) 25.9% | viability, T/C (second compound 0.1 µM, first compound 0.949 µM) 15.5% | viability, T/C (second compound 0.1 µM, first compound 3 µM) 12% | viability, T/C (second compound 0.316 µM, first compound 0.00949 µM) 55% | viability, T/C (second compound 0.316 µM, first compound 0.03 µM) 38.7% | viability, T/C (second compound 0.316 µM, first compound 0.0949 µM) 27.1% | viability, T/C (second compound 0.316 µM, first compound 0.3 µM) 20.5% | viability, T/C (second compound 0.316 µM, first compound 0.949 µM) 14.2% | viability, T/C (second compound 0.316 µM, first compound 3 µM) 11.3% | viability, T/C (second compound 1 µM, first compound 0.00949 µM) 56.7% | viability, T/C (second compound 1 µM, first compound 0.03 µM) 41.7% | viability, T/C (second compound 1 µM, first compound 0.0949 µM) 24.9% | viability, T/C (second compound 1 µM, first compound 0.3 µM) 23% | viability, T/C (second compound 1 µM, first compound 0.949 µM) 14% | viability, T/C (second compound 1 µM, first compound 3 µM) 11.9% | viability, T/C (second compound 3.16 µM, first compound 0.00949 µM) 48.6% | viability, T/C (second compound 3.16 µM, first compound 0.03 µM) 32.3% | viability, T/C (second compound 3.16 µM, first compound 0.0949 µM) 23.5% | viability, T/C (second compound 3.16 µM, first compound 0.3 µM) 20.3% | viability, T/C (second compound 3.16 µM, first compound 0.949 µM) 14.7% | viability, T/C (second compound 3.16 µM, first compound 3 µM) 11.7% | viability, T/C (second compound 10 µM, first compound 0.00949 µM) 38.2% | viability, T/C (second compound 10 µM, first compound 0.03 µM) 25.5% | viability, T/C (second compound 10 µM, first compound 0.0949 µM) 24.9% | viability, T/C (second compound 10 µM, first compound 0.3 µM) 20.1% | viability, T/C (second compound 10 µM, first compound 0.949 µM) 11.6%
13.4 nM: IC50 [2]
active: viability, T/C (second compound 10 µM, first compound 3 µM) 10%
22.6 nM: IC50 [1]

CC(C)CC(NC(=O)CNC(=O)c1cc(Cl)ccc1Cl)B1OC(=O)CC(CC(=O)O)(C(=O)O)O1 (stereo not drawn) + NC1CC1c1ccc(-c2cccc(O)c2)cc1
2.35 nM: IC50 [3]
2.49 nM: IC50 [4]
1.01 nM: IC50 [5]
active: viability, T/C [8] 1.93% | viability, T/C [9] 1.29% | viability, T/C [12] 0.83% | viability, T/C [13] 0.29% | viability, T/C [16] 0.95% | viability, T/C [17] 0.24% | viability, T/C [20] 0.98% | viability, T/C [21] 0.37% | viability, T/C [23] 7.98% | viability, T/C [24] 0.83% | viability, T/C [25] 0.27%
4.37 nM: IC50 [1]
inactive: viability, T/C (second compound 0.1 µM, first compound 0.000316 µM) 85.1% | viability, T/C (second compound 0.1 µM, first compound 0.001 µM) 93.9% | viability, T/C [6] 62.9% | viability, T/C [7] 14.6% | viability, T/C (second compound 0.316 µM, first compound 0.000316 µM) 67.8% | viability, T/C (second compound 0.316 µM, first compound 0.001 µM) 73.3% | viability, T/C [10] 48.4% | viability, T/C [11] 11.8% | viability, T/C (second compound 1 µM, first compound 0.000316 µM) 61.7% | viability, T/C (second compound 1 µM, first compound 0.001 µM) 66% | viability, T/C [14] 44.4% | viability, T/C [15] 13.8% | viability, T/C (second compound 3.16 µM, first compound 0.000316 µM) 61.8% | viability, T/C (second compound 3.16 µM, first compound 0.001 µM) 73.7% | viability, T/C [18] 43.4% | viability, T/C [19] 12.7% | viability, T/C (second compound 10 µM, first compound 0.000316 µM) 48% | viability, T/C (second compound 10 µM, first compound 0.001 µM) 55.2% | viability, T/C [22] 30.4%
3.09 nM: IC50 [2]

Nc1ccccc1NC(=O)c1ccc(CNC(=O)OCc2cccnc2)cc1
active: viability, T/C (compound 3 µM) 3.56% and 0.18%
inactive: viability, T/C (compound 0.00949 µM) 81.5% and 86.7% | viability, T/C (compound 0.03 µM) 56.5% and 52.2% | viability, T/C (compound 0.0949 µM) 39.4% and 21.1%
53.2 nM and 31.4 nM: IC50 (curve of compound)
15.4% and 4.07%: viability, T/C (compound 0.949 µM)
28.1% and 12.2%: viability, T/C (compound 0.3 µM)

CC1(C)CCC(CN2CCN(c3ccc(C(=O)NS(=O)(=O)c4ccc(NCC5CCOCC5)c([N+](=O)[O-])c4)c(Oc4cnc5[nH]ccc5c4)c3)CC2)=C(c2ccc(Cl)cc2)C1 + NC1CC1c1ccc(-c2cccc(O)c2)cc1
4280 nM: IC50 [4]
active: viability, T/C (second compound 0.1 µM, first compound 10 µM) 1.41% | viability, T/C (second compound 0.316 µM, first compound 10 µM) 1.16% | viability, T/C (second compound 1 µM, first compound 10 µM) 1.72% | viability, T/C (second compound 3.16 µM, first compound 10 µM) 1.48% | viability, T/C (second compound 10 µM, first compound 10 µM) 0.6%
< 31.6 nM: IC50 [5]
4290 nM: IC50 [2]
inactive: viability, T/C [8] 90.9% | viability, T/C [9] 93% | viability, T/C [26] 94.5% | viability, T/C [27] 112% | viability, T/C (second compound 0.1 µM, first compound 3.16 µM) 71.2% | viability, T/C [12] 74.1% | viability, T/C [13] 78.6% | viability, T/C [28] 82.1% | viability, T/C [29] 77.9% | viability, T/C (second compound 0.316 µM, first compound 3.16 µM) 67.6% | viability, T/C [16] 75.2% | viability, T/C [17] 70% | viability, T/C [30] 76.7% | viability, T/C [31] 80.5% | viability, T/C (second compound 1 µM, first compound 3.16 µM) 70% | viability, T/C [20] 68.2% | viability, T/C [21] 70.2% | viability, T/C [32] 78.8% | viability, T/C [33] 79.4% | viability, T/C (second compound 3.16 µM, first compound 3.16 µM) 67.1% | viability, T/C [24] 48.5% | viability, T/C [25] 42.5% | viability, T/C [34] 48.5% | viability, T/C [35] 55.3% | viability, T/C (second compound 10 µM, first compound 3.16 µM) 45.6%
4480 nM: IC50 [1]
4430 nM: IC50 [3]

CC1COCCN1c1cc(-c2ccnn2C)c2ccnc(-c3ccn[nH]3)c2n1 (stereo not drawn) + NC1CCC(NC2CC2c2ccccc2)CC1
10.7 nM: IC50 [5]
25.7 nM: IC50 [3]
34.3 nM: IC50 [2]
inactive: viability, T/C [6] 102% | viability, T/C [7] 77.8% | viability, T/C [8] 50.4% | viability, T/C [9] 33.3% | viability, T/C [26] 28.4% | viability, T/C [27] 28.8% | viability, T/C [10] 93.7% | viability, T/C [11] 73.8% | viability, T/C [12] 50.7% | viability, T/C [13] 37.4% | viability, T/C [28] 29.3% | viability, T/C [29] 28.9% | viability, T/C [14] 90% | viability, T/C [15] 69.4% | viability, T/C [16] 45.8% | viability, T/C [17] 34.5% | viability, T/C [30] 27.4% | viability, T/C [31] 30.7% | viability, T/C [18] 72.8% | viability, T/C [19] 57.4% | viability, T/C [20] 40.2% | viability, T/C [21] 33% | viability, T/C [32] 29.3% | viability, T/C [33] 30.7% | viability, T/C [22] 56.9% | viability, T/C [23] 51% | viability, T/C [24] 32.8% | viability, T/C [25] 30% | viability, T/C [34] 28% | viability, T/C [35] 28.9%
16.5 nM: IC50 [4]
31.1 nM: IC50 [1]

CC1COCCN1c1cc(-c2ccnn2C)c2ccnc(-c3ccn[nH]3)c2n1 (stereo not drawn)
inactive: viability, T/C (compound 0.00316 µM) 92.8% and 41% | viability, T/C (compound 0.01 µM) 80.5% and 30.1% | viability, T/C (compound 0.0316 µM) 51.5% and 19.3% | viability, T/C (compound 0.1 µM) 35.9% and 18.3% | viability, T/C (compound 0.316 µM) 31.8% and 18.9% | viability, T/C (compound 1 µM) 28.6% and 22.4%

Reference: PubChem BioAssay AID1918953 (Molecular Pharmacology Branch, DTP, NCI, 2023)
